According to the supplement of paper PMC11451515:

Key:
Settings in all cases: 48 h
P12-Ichikawa [1] = test: AUC of viability dose-response curve (% viability x log10 dose units); higher = less sensitive
Method in brief: (§1)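 Leukemia cells adapted to each medium (500 or 1000 cells/well, 1536-well plates) were exposed to library compounds in DMSO for 48 h at 37°C at 11 threefold doses, 47 μM to 0.79 nM. Luminescence by CellTiter-Glo One was normalised per plate to DMSO and cell-free wells, then fitted with a four-parameter log-logistic curve on log10 dose. Curves above full viability were scaled and quality-control failures removed before area under the curve was integrated by trapezoidal rule.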

SEM cells [2] = test: as above
Method in brief: as §1

NOMO1 [3] = test: as above
Method in brief: as §1

P12-Ichikawa [4] = test: cell viability relative to DMSO control; higher = less cytotoxic
Method in brief: (§2)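 Library compounds in DMSO were pin-dosed into 1536-well plates (5 μl) holding NOMO1 or SEM (500 cells/well) or P12-Ichikawa (1000 cells/well) leukemia cells, across an 11-point threefold series of 47 μM to 0.79 nM. Each cell line had been adapted for at least four passages in each medium. CellTiter-Glo One luminescence was read after 48 h at 37°C. Viability is the per-plate percentage relative to DMSO wells, with cell-free wells as background.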

SEM cells [5] = test: as above
Method in brief: as §2

NOMO1 [6] = test: as above
Method in brief: as §2

CN(C)[C@H]\1[C@@H]2C[C@H]3C(=C(O)\[C@]2(O)C(=O)\C(=C1O)C(N)=O)/C(=O)C4=C(O)C=CC=C4[C@@]3(C)O
AUC of viability dose-response curve
Settings	NOMO1 [3]	P12-Ichikawa [1]	SEM cells [2]
HPLM + 10% dialyzed FBS	468	470	426
RPMI 5 mM glucose + 10% FBS	443	467	441
RPMI 5 mM glucose + 10% dialyzed FBS	454	461	452

cell viability [%]
Settings	NOMO1 [6]	P12-Ichikawa [4]	SEM cells [5]
HPLM + 10% dialyzed FBS, 0.000781 µM	104	113	92.6
HPLM + 10% dialyzed FBS, 0.00234 µM	111	115	88.5
HPLM + 10% dialyzed FBS, 0.00702 µM	104	114	81.5
HPLM + 10% dialyzed FBS, 0.0211 µM	109	115	101
HPLM + 10% dialyzed FBS, 0.0632 µM	111	113	92.5
HPLM + 10% dialyzed FBS, 0.19 µM	106	116	90.8
HPLM + 10% dialyzed FBS, 0.569 µM	120	114	92.7
HPLM + 10% dialyzed FBS, 1.71 µM	95.1	111	86.6
HPLM + 10% dialyzed FBS, 5.12 µM	121	114	85.2
HPLM + 10% dialyzed FBS, 15.4 µM	97.1	108	90.1
HPLM + 10% dialyzed FBS, 46.1 µM	99.6	93.9	78.3
RPMI 5 mM glucose + 10% FBS, 0.000781 µM	117	112	113
RPMI 5 mM glucose + 10% FBS, 0.00234 µM	124	103	118
RPMI 5 mM glucose + 10% FBS, 0.00702 µM	118	109	114
RPMI 5 mM glucose + 10% FBS, 0.0211 µM	125	116	102
RPMI 5 mM glucose + 10% FBS, 0.0632 µM	108	118	83.7
RPMI 5 mM glucose + 10% FBS, 0.19 µM	102	110	104
RPMI 5 mM glucose + 10% FBS, 0.569 µM	119	114	108
RPMI 5 mM glucose + 10% FBS, 1.71 µM	110	107	96.8
RPMI 5 mM glucose + 10% FBS, 5.12 µM	102	115	93.2
RPMI 5 mM glucose + 10% FBS, 15.4 µM	104	92.8	109
RPMI 5 mM glucose + 10% FBS, 46.1 µM	106	98.8	93
RPMI 5 mM glucose + 10% dialyzed FBS, 0.000781 µM	104	114	118
RPMI 5 mM glucose + 10% dialyzed FBS, 0.00234 µM	116	101	108
RPMI 5 mM glucose + 10% dialyzed FBS, 0.00702 µM	112	114	128
RPMI 5 mM glucose + 10% dialyzed FBS, 0.0211 µM	115	111	129
RPMI 5 mM glucose + 10% dialyzed FBS, 0.0632 µM	112	116	89.8
RPMI 5 mM glucose + 10% dialyzed FBS, 0.19 µM	102	116	108
RPMI 5 mM glucose + 10% dialyzed FBS, 0.569 µM	110	111	126
RPMI 5 mM glucose + 10% dialyzed FBS, 1.71 µM	95	104	116
RPMI 5 mM glucose + 10% dialyzed FBS, 5.12 µM	110	105	59.4
RPMI 5 mM glucose + 10% dialyzed FBS, 15.4 µM	101	97.5	116
RPMI 5 mM glucose + 10% dialyzed FBS, 46.1 µM	93.4	97	100

O=C(Nc1ccccc1-c1cn2c(CN3CCNCC3)csc2n1)c1cnc2ccccc2n1
AUC of viability dose-response curve
Settings	NOMO1 [3]	P12-Ichikawa [1]	SEM cells [2]
HPLM + 10% dialyzed FBS	381	388	364
RPMI 5 mM glucose + 10% FBS	350	369	366
RPMI 5 mM glucose + 10% dialyzed FBS	391	361	310

cell viability [%]
Settings	NOMO1 [6]	P12-Ichikawa [4]	SEM cells [5]
HPLM + 10% dialyzed FBS, 0.000781 µM	91.8	84.5	61.2
HPLM + 10% dialyzed FBS, 0.00234 µM	83	89.8	97.4
HPLM + 10% dialyzed FBS, 0.00702 µM	71.9	89.3	109
HPLM + 10% dialyzed FBS, 0.0211 µM	77.7	84.4	98.1
HPLM + 10% dialyzed FBS, 0.0632 µM	82.6	90.1	81.4
HPLM + 10% dialyzed FBS, 0.19 µM	92	88.3	81.1
HPLM + 10% dialyzed FBS, 0.569 µM	81.9	85.3	90.5
HPLM + 10% dialyzed FBS, 1.71 µM	66.6	84.5	67.5
HPLM + 10% dialyzed FBS, 5.12 µM	79.3	83.9	72.5
HPLM + 10% dialyzed FBS, 15.4 µM	74.2	75.3	48.3
HPLM + 10% dialyzed FBS, 46.1 µM	76.3	0.861	1.98
RPMI 5 mM glucose + 10% FBS, 0.000781 µM	76.6	80.4	71.4
RPMI 5 mM glucose + 10% FBS, 0.00234 µM	80.6	85.3	107
RPMI 5 mM glucose + 10% FBS, 0.00702 µM	82.9	83.6	95.2
RPMI 5 mM glucose + 10% FBS, 0.0211 µM	85.1	85.2	103
RPMI 5 mM glucose + 10% FBS, 0.0632 µM	79.7	86.5	76
RPMI 5 mM glucose + 10% FBS, 0.19 µM	85.3	86.1	84.4
RPMI 5 mM glucose + 10% FBS, 0.569 µM	70.3	79.8	94.8
RPMI 5 mM glucose + 10% FBS, 1.71 µM	68.1	76.2	67.4
RPMI 5 mM glucose + 10% FBS, 5.12 µM	77.1	82.9	54.3
RPMI 5 mM glucose + 10% FBS, 15.4 µM	65.6	67.9	59.2
RPMI 5 mM glucose + 10% FBS, 46.1 µM	0.639	1.29	2.64
RPMI 5 mM glucose + 10% dialyzed FBS, 0.000781 µM	86.3	83	56.4
RPMI 5 mM glucose + 10% dialyzed FBS, 0.00234 µM	84.6	84	93.2
RPMI 5 mM glucose + 10% dialyzed FBS, 0.00702 µM	96	80.3	84.5
RPMI 5 mM glucose + 10% dialyzed FBS, 0.0211 µM	90.5	80.5	86.5
RPMI 5 mM glucose + 10% dialyzed FBS, 0.0632 µM	80	78.1	65.4
RPMI 5 mM glucose + 10% dialyzed FBS, 0.19 µM	80.2	87.4	80.1
RPMI 5 mM glucose + 10% dialyzed FBS, 0.569 µM	74.2	78.4	79.5
RPMI 5 mM glucose + 10% dialyzed FBS, 1.71 µM	86.8	78.7	52.6
RPMI 5 mM glucose + 10% dialyzed FBS, 5.12 µM	79.4	77.8	53.9
RPMI 5 mM glucose + 10% dialyzed FBS, 15.4 µM	69	69	37.4
RPMI 5 mM glucose + 10% dialyzed FBS, 46.1 µM	75.1	1.1	2.76

CCOC(=O)\C1=C(/C)N\C2=C(C1C3=CC=C(C=C3)C4=CC=CC=C4)\C(=O)CC(C)(C)C2 (centres undefined)
AUC of viability dose-response curve
Settings	NOMO1 [3]	P12-Ichikawa [1]	SEM cells [2]
HPLM + 10% dialyzed FBS	438	457	461
RPMI 5 mM glucose + 10% FBS	465	457	451
RPMI 5 mM glucose + 10% dialyzed FBS	447	444	450

cell viability [%]
Settings	NOMO1 [6]	P12-Ichikawa [4]	SEM cells [5]
HPLM + 10% dialyzed FBS, 0.000781 µM	125	119	107
HPLM + 10% dialyzed FBS, 0.00234 µM	97.2	112	104
HPLM + 10% dialyzed FBS, 0.00702 µM	125	123	101
HPLM + 10% dialyzed FBS, 0.0211 µM	117	110	105
HPLM + 10% dialyzed FBS, 0.0632 µM	116	119	104
HPLM + 10% dialyzed FBS, 0.19 µM	114	110	113
HPLM + 10% dialyzed FBS, 0.569 µM	102	109	103
HPLM + 10% dialyzed FBS, 1.71 µM	102	107	102
HPLM + 10% dialyzed FBS, 5.12 µM	106	108	105
HPLM + 10% dialyzed FBS, 15.4 µM	82.3	108	92
HPLM + 10% dialyzed FBS, 46.1 µM	73.6	103	60.4
RPMI 5 mM glucose + 10% FBS, 0.000781 µM	107	108	101
RPMI 5 mM glucose + 10% FBS, 0.00234 µM	103	104	122
RPMI 5 mM glucose + 10% FBS, 0.00702 µM	102	117	134
RPMI 5 mM glucose + 10% FBS, 0.0211 µM	108	117	114
RPMI 5 mM glucose + 10% FBS, 0.0632 µM	105	115	144
RPMI 5 mM glucose + 10% FBS, 0.19 µM	109	99.8	108
RPMI 5 mM glucose + 10% FBS, 0.569 µM	103	109	110
RPMI 5 mM glucose + 10% FBS, 1.71 µM	102	103	112
RPMI 5 mM glucose + 10% FBS, 5.12 µM	106	102	108
RPMI 5 mM glucose + 10% FBS, 15.4 µM	87	95.3	96.1
RPMI 5 mM glucose + 10% FBS, 46.1 µM	88.2	113	58.4
RPMI 5 mM glucose + 10% dialyzed FBS, 0.000781 µM	110	112	89.4
RPMI 5 mM glucose + 10% dialyzed FBS, 0.00234 µM	103	118	116
RPMI 5 mM glucose + 10% dialyzed FBS, 0.00702 µM	111	116	111
RPMI 5 mM glucose + 10% dialyzed FBS, 0.0211 µM	114	114	98.3
RPMI 5 mM glucose + 10% dialyzed FBS, 0.0632 µM	113	111	104
RPMI 5 mM glucose + 10% dialyzed FBS, 0.19 µM	95.1	101	89.4
RPMI 5 mM glucose + 10% dialyzed FBS, 0.569 µM	104	104	97.5
RPMI 5 mM glucose + 10% dialyzed FBS, 1.71 µM	112	101	103
RPMI 5 mM glucose + 10% dialyzed FBS, 5.12 µM	90.1	107	89.8
RPMI 5 mM glucose + 10% dialyzed FBS, 15.4 µM	73.7	98.9	81.1
RPMI 5 mM glucose + 10% dialyzed FBS, 46.1 µM	74.8	95.3	57.6
